Test results from patent US9226934B2, “Anti-cancer drug” (THE UNIVERSITY OF TOKYO, priority 2008, dated 2016).

How the values were obtained:
[1] = system: MC 38, mouse colon carcinoma cells; experiment: Subcutaneous tumor model of MC38 colon carcinoma cells in C57Bl/6 mice, tumor growth; format: in vivo; details: agent alone i.p. on day 10, 13, 16; compared with non-treated group; afterwards growth as in non-treated group
Experimental: (§1) The MC 38, mouse colon carcinoma cells or B16, melanoma cells were subcutaneously injected to the back of 6-week-old C57BI/6 mice (1×10^5 cells/mouse). After the tumor diameter (longer diameter) reached 5 mm (25 to 30 mm^2) (day 10), an anti-cancer agent and/or an anti-MFG-E8 antibody were/was intraperitoneally administered to each mouse on day 10, day 13, and day 16 according to any of the following protocols. The experiments according to each protocol were performed twice. The employed anti-MFG-E8 antibody was a blocking antibody commercially available from MBL. In protocols 1 to 4, MC38 was used, and B16 melanoma was used in protocol 5.
• Gemcitabine (GEM): 4 mg/kg • Gemcitabine (GEM): 1 mg/kg • Anti-MFG-E8 antibody: 1 mg/kg • Gemcitabine (GEM): 4 mg/kg+anti-MFG-E8 antibody: 1 mg/kg • Gemcitabine (GEM): 1 mg/kg+anti-MFG-E8 antibody: 1 mg/kg Protocol 2: • CPT-11: 1 mg/kg • 5-FU: 0.1 M • Anti-MFG-E8 antibody: 1 mg/kg • CPT-11: 1 mg/kg+anti-MFG-E8 antibody: 1 mg/kg • 5-FU: 0.1 M+anti-MFG-E8 antibody: 1 mg/kg Protocol 3: • Epidermal growth factor receptor tyrosine kinase 1 (EGFR-TK1): […] • Anti-vascular endothelial growth factor receptor-2 monoclonal antibody (α-VEGFR-2Ab): 40 mg/kg • Anti-MFG-E8 antibody: 1 mg/kg Protocol 4: • Irradiation (XRT): 3 Gy/day×5 • Anti-MFG-E8 antibody: 1 mg/kg Protocol 5: • Doxorubicin (Dox): 5 mg/kg • Etoposide (Etop): 2 mg/kg • Anti-MFG-E8 antibody: 1 mg/kg (Results)

B16, melanoma cells = experiment: Subcutaneous tumor model of B16 melanoma cells in C57Bl/6 mice, tumor growth; format: in vivo, mouse; details: agent alone i.p. on day 10, 13, 16; compared with non-treated group; afterwards growth as in non-treated group
Experimental: as §1, with “5. […]” for “5.”

dendritic cells = experiment: OVA-specific T cell activity in mixed culture with treated dendritic cells, intracellular IFN-γ and IL-10; format: cell-based, mouse; details: dendritic cells treated with MFG-E8 recombinant protein 100 μg/mL or anti-MFG-E8 antibody 20 μg/mL; 72 h; compared to control
Excerpt: The mechanisms of activation of dendritic cells and T cells through employment of the anti-MFG-E8 antibody and the anti-cancer agent, such activation having been observed in vivo, were further investigated in vitro by using a mixed culture system.
Specifically, ovalbumin (OVA) was employed as a model antigen. In a specific procedure, bone marrow cells were collected from DO11.10 (MHC class II-restricting OVA antigen transgenic mice), and differentiation to dendritic cells was induced with granulocyte-monocyte colony-stimulating factor (GM-CSF). Seven days after the initiation of the differentiation induction, the cells were treated with MFG-E8 recombinant protein (100 μg/mL) or anti-MFG-E8 antibody (20 μg/mL). Thereafter, on day 8, the thus-treated cells were pulsed with MHC class II OVA-restricting OVA peptide ([…]) or a negative control peptide (HSA) for six hours. The resultant cells were admixed with naive CD4+ positive T cells derived from syngeneic (Balb/c) mice in such an amount that the ratio of dendritic cells to CD4+ T cells was adjusted to 1:10, and the cell mixture was cultured in the presence of an anti-CD3 antibody (0.1 μg/mL). Seventy-two hours after, the activity of T cells was determined through flow cytometry, in terms of intracellular expression of IFN-γ and IL-10.

Dendritic cells (BMDCs) = experiment: Cytokine concentrations of BMDC culture supernatant, ELISA; format: cell-based, mouse; details: recombinant MFG-E8 100 ng/mL or anti-MFG-E8 monoclonal antibody 20 μg/mL overnight
Experimental: Dendritic cells (BMDCs) were prepared through culturing myeloid progenitor cells for seven days in a GM-CSF containing medium, and treated overnight with recombinant MFG-E8 (100 ng/mL, product of R&D Systems), an anti-MFG-E8 monoclonal antibody (20 μg/mL, MBL), or a polyclonal MFG-E8 anti-serum (20 μg/mL). The IL-12, IL-23, TNF-α, and IL-10 concentrations of the culture supernatant were determined with ELISA. On day 7, BMDCs were co-cultured with PKH26 (Sigma-Aldrich)-labeled EG.7-OVA cells using a 12-well plate (ratio: 1:10), and phagocytosis was determined with flow cytometry. A similar experiment was performed using tumor cells treated for 30 minutes with an anti-MFG-E8 monoclonal antibody ([…]) before the co-culture. The effect of αvβ3 integrin-blocking antibody (RMV-7, product of Millipore) or Fc-receptor-blocking antibody (product of BD Bioscience) was also evaluated on the intake of tumor cells. Cross-presentation was tested using the following procedure. Specifically, naive CD4^+ T cells were isolated from the spleen of C57BL/6-Tg (ACTB-OVA) 916Jen/J mice using magnetic cell sorting (product of Miltenyi Biotech). The thus-isolated cells were added to the dendritic cells to which tumor cells had been loaded for 24 hours. Expression of IFN-γ within the cells was measured with flow cytometry.

Molecule	tumor growth, anti-cancer agent alone [1]	tumor growth, anti-cancer agent alone (B16, melanoma cells)	also measured
O=c1[nH]cc(F)c(=O)[nH]1 [5FU, 5-FU]	tumor growth was significantly suppressed for 5 to 10 days after administration	–	–
CCc1c2c(nc3ccc(OC(=O)N4CCC(N5CCCCC5)CC4)cc13)-c1cc3c(c(=O)n1C2)COC(=O)[C@]3(O)CC [CPT-11]	tumor growth was significantly suppressed for 5 to 10 days after administration	–	–
Nc1ccn([C@@H]2O[C@H](CO)[C@@H](O)C2(F)F)c(=O)n1 [GEM, gemcitabine]	tumor growth was significantly suppressed for 5 to 10 days after administration	–	–
COc1cccc2c1C(=O)c1c(O)c3c(c(O)c1C2=O)C[C@@](O)(C(=O)CO)C[C@@H]3O[C@H]1C[C@H](N)[C@H](O)[C@H](C)O1 [doxorubicin]	–	tumor growth was significantly suppressed for 5 to 10 days after administration	–
COc1cc([C@@H]2c3cc4c(cc3[C@@H](O[C@@H]3O[C@@H]5CO[C@@H](C)O[C@H]5[C@H](O)[C@H]3O)[C@H]3COC(=O)[C@H]23)OCO4)cc(OC)c1O [etoposide]	–	tumor growth was significantly suppressed for 5 to 10 days after administration	–
MFG-E8: MFG-E8 recombinant protein (product of R&D Systems in Example 11) (protein, UniProt Q08431 24-387, looked up) Lactadherin: LDICSKNPCHNGGLCEEISQEVRGDVFPSYTCTCLKGYAGNHCETKCVEPLGLENGNIANSQIAASSVRVTFLGLQHWVPELARLNRAGMVNAWTPSSNDDNPWIQVNLLRRMWVTGVVTQGASRLASHEYLKAFKVAYSLNGHEFDFIHDVNKKHKEFVGNWNKNAVHVNLFETPVEAQYVRLYPTSCHTACTLRFELLGCELNGCANPLGLKNNSIPDKQITASSSYKTWGLHLFSWNPSYARLDKQGNFNAWVAGSYGNDQWLQVDLGSSKEVTGIITQGARNFGSVQFVASYKVAYSNDSANWTEYQDPRTGSSKIFPGNWDNHSHKKNLFETPILARYVRILPVAWHNRIALRLELLGC	–	–	IL-10 production (dendritic cells): potentiation; OVA-specific IFN-γ production (dendritic cells): suppression; IL-10 production by dendritic cells (Dendritic cells (BMDCs)): enhanced secretion of IL-10
